Results from patent US20220324865A1 (Bayer Aktiengesellschaft, priority 2018, published 2022).
pIC50: −log10 of the molar value.

Target: T1, human EP3 receptor (Homo sapiens, UniProt P43115)
T1 construct: expressed in transfected cells; host or cells: CHO K1 (Chinese Hamster Ovary), stably co-transfected with Galpha16 and mitochondrial clytin
T1 sequence (P43115 1-390): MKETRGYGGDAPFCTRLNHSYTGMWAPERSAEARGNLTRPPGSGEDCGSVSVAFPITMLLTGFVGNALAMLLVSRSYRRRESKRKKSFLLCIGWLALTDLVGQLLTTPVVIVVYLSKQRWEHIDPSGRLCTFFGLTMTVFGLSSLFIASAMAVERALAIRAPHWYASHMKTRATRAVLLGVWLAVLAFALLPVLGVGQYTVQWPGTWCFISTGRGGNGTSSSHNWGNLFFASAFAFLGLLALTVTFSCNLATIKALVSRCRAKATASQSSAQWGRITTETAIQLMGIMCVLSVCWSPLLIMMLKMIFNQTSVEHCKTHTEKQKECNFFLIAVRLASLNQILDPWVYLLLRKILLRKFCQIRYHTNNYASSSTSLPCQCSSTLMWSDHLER
Assay: Cellular in vitro assay for determining EP3 receptor activity (human EP3 cell line, sulprostone-stimulated calcium luminescence)
Type: cell-based
Settings: CHO cells expressing human EP3 and mitochondrial Clytin; antagonist mode, sulprostone at EC50; read-out: EP3 CHO mtCLY ANTAG IC50
How it was run: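 Antagonist activity was measured as inhibition of the luminescent calcium signal elicited by EC50 sulprostone, following 10 min compound pretreatment. The cell line was recombinant CHO K1 co-expressing human EP3, Gα16 and the photoprotein Clytin, reconstituted with coelenterazine.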

Row | pIC50 | Structure (SMILES)
1 | 8.98 | O=C(NCc1ncc(C(F)(F)F)cc1Cl)c1nn2cc(-c3ccc4ccccc4c3)[nH]c(=O)c2c1C(F)(F)F [6-8]
2 | 8.57 | Cc1ccc(-c2cn3nc(C(=O)NCC(O)(C(F)(F)F)C(F)(F)F)c(C4CC4)c3c(=O)[nH]2)cc1Cl [6-261]
3 | 8.47 | Cc1ccc(-c2cn3nc(C(=O)NCCN(C)C4CC4)c(C4CC4)c3c(=O)[nH]2)cc1F [6-384]
4 | 8.48 | COc1ccc(C2(NC(=O)c3nn4cc(-c5ccc(C)c(Cl)c5)[nH]c(=O)c4c3C3CC3)CN(C)C2)cc1 [6-257]
5 | 8.34 | O=C(NCC(O)(C(F)(F)F)C(F)(F)F)c1nn2cc(-c3ccc(Cl)c(F)c3)[nH]c(=O)c2c1C1CC1 [6-88]
6 | 8.28 | O=C(N[C@@H](c1ccc(F)cc1)C(F)(F)CO)c1nn2cc(-c3cccc(Cl)c3)[nH]c(=O)c2c1C1CC1 [6-678]
7 | 8.10 | O=C(N[C@H]1c2ccccc2C[C@H]1O)c1cc2c(=O)[nH]c(-c3ccc4ccccc4c3)cn2n1 [6-72]
8 | 8.57 | Cc1cc(-c2cn3nc(C(=O)N[C@@H](C)C(C)C)c(C(F)(F)F)c3c(=O)[nH]2)ccc1Cl [6-215]
9 | 8.15 | O=C(N[C@H](CN1CC(F)C1)C1CC1)c1nn2cc(-c3ccc4ccccc4c3)[nH]c(=O)c2c1C(F)(F)F [6-513]
10 | 8.25 | Cc1ccc(-c2cn3nc(C(=O)NC(C)C4CC4)c(C(F)(F)F)c3c(=O)[nH]2)cc1F (racemic) [6-147]
11 | 9.24 | COCc1c(C(=O)N[C@@H](c2ccc(F)cc2)C(C)(C)O)nn2cc(-c3ccc(C)c(Cl)c3)[nH]c(=O)c12 [6-627]
12 | 8.36 | N#Cc1c(C(=O)NC(CO)c2cc(Cl)cc(Cl)c2)nn2cc(-c3ccc4ccccc4c3)[nH]c(=O)c12 (centres unmarked) [Example 3-76, 3-Cyano-N-[1-(3,5-dichlorophenyl)-2-hydroxyethyl]-6-(2-naphthyl)-4-oxo-5H-pyrazolo[1,5-a]pyrazine-2-carboxamide]
13 | 8.02 | Cc1cc(CNC(=O)c2nn3c(C)c(-c4ccc5ccccc5c4)[nH]c(=O)c3c2C)on1 [Example 3-15, 3,7-Dimethyl-N-[(3-methyl-1,2-oxazol-5-yl)methyl]-6-(naphthalen-2-yl)-4-oxo-4,5-dihydropyrazolo[1,5-a]pyrazine-2-carboxamide]
14 | 8.30 | COc1ccc(C(NC(=O)c2nn3c(C)c(-c4ccc5ccccc5c4)[nH]c(=O)c3c2C)C2CC2)cc1 (centres unmarked) [Example 3-35, N-[Cyclopropyl(4-methoxyphenyl)methyl]-3,7-dimethyl-6-(2-naphthyl)-4-oxo-5H-pyrazolo[1,5-a]pyrazine-2-carboxamide]
15 | 8.80 | CC[C@H](C)NC(=O)c1nn2cc(-c3ccc(C)c(Cl)c3)[nH]c(=O)c2c1C1CC1 [6-282]
16 | 9.09 | Cc1ccc(-c2cn3nc(C(=O)NCC(O)C(F)(F)F)c(C4CC4)c3c(=O)[nH]2)cc1Cl (single isomer, unassigned) [6-260]
17 | 9.11 | Cc1ccc(-c2cn3nc(C(=O)NCC(O)C(F)(F)F)c(C4CC4)c3c(=O)[nH]2)cc1C (single isomer, unassigned) [6-437]
18 | 8.99 | Cc1cc(-c2cn3nc(C(=O)NC4(c5ccc(F)cc5)CN(CC(F)F)C4)c(C4CC4)c3c(=O)[nH]2)ccc1Cl [6-340]
19 | 8.51 | CN1CC(NC(=O)c2nn3cc(-c4ccc(Cl)c(C(F)F)c4)[nH]c(=O)c3c2C2CC2)(c2ccc(F)cc2)C1 [6-665]
20 | 8.92 | CCn1cc(CNC(=O)c2nn3cc(-c4ccc5ccccc5c4)[nH]c(=O)c3c2C(F)(F)F)c(C)n1 [6-496]
21 | 8.74 | Cc1c(C(=O)NC(C)c2ccc(F)cc2)nn2c(C)c(-c3ccc4ccccc4c3)[nH]c(=O)c12 (centres unmarked) [Example 3-21, N-[1-(4-Fluorophenyl)ethyl]-3,7-dimethyl-6-(2-naphthyl)-4-oxo-5H-pyrazolo[1,5-a]pyrazine-2-carboxamide]

The remaining lines, values behind:

Row | Structure (SMILES) | pIC50
22 | CC(C)(O)[C@@H](NC(=O)c1nn2cc(-c3ccc(Cl)c(Cl)c3)[nH]c(=O)c2c1C1CC1)c1ccc(F)cc1 [Example 1-168, 3-Cyclopropyl-6-(3,4-dichlorophenyl)-N-[(1S)-1-(4-fluorophenyl)-2-hydroxy-2-methylpropyl]-4-oxo-4,5-dihydropyrazolo[1,5-a]pyrazine-2-carboxamide] | 8.72
23 | CN1CC(NC(=O)c2nn3cc(-c4ccc(Cl)c(F)c4)[nH]c(=O)c3c2C2CC2)(c2ccc(F)cc2)C1 [Example 1-169, 6-(4-Chloro-3-fluorophenyl)-3-cyclopropyl-N-[3-(4-fluorophenyl)-1-methylazetidin-3-yl]-4-oxo-4,5-dihydropyrazolo[1,5-a]pyrazine-2-carboxamide] | 8.47
24 | Cc1cnn(CC(C)NC(=O)c2cc3c(=O)[nH]c(-c4ccc5ccccc5c4)cn3n2)c1 (centres unmarked) [Example 2-29, N-[1-(4-Methyl-1H-pyrazol-1-yl)propan-2-yl]-6-(2-naphthyl)-4-oxo-4,5-dihydropyrazolo[1,5-a]pyrazine-2-carboxamide] | 8.14
25 | COC[C@@H](NC(=O)c1nn2cc(-c3ccc4ccccc4c3)[nH]c(=O)c2c1C#N)c1ccccc1 [Example 1-60, 3-Cyano-N-[(1S)-2-methoxy-1-phenylethyl]-6-(naphthalen-2-yl)-4-oxo-4,5-dihydropyrazolo[1,5-a]-pyrazine-2-carboxamide] | 8.57
26 | CC(C)(C)OC(=O)N1CC(NC(=O)c2cc3c(=O)[nH]c(-c4ccc5ccccc5c4)cn3n2)(c2ccc(F)cc2)C1 [Example 1-47, tert.-Butyl 3-(4-fluorophenyl)-3-({[6-(naphthalen-2-yl)-4-oxo-4,5-dihydropyrazolo[1,5-a]pyrazin-2-yl]carbonyl}amino)azetidine-1-carboxylate] | 8.33
27 | Cc1ccc(-c2cn3nc(C(=O)NC(CCO)c4ccc(C(F)(F)F)cc4)cc3c(=O)[nH]2)cc1C (centres unmarked) [Example 1-86, 6-(3,4-Dimethylphenyl)-N-[3-hydroxy-1-[4-(trifluoromethyl)phenyl]propyl]-4-oxo-5H-pyrazolo-[1,5-a]pyrazine-2-carboxamide] | 9.15
28 | Cc1ccc(-c2cn3nc(C(=O)NC4(c5ccc(F)cc5)CN(C)C4)c(C4CC4)c3c(=O)[nH]2)cc1C [Example 1-36, 3-Cyclopropyl-6-(3,4-dimethylphenyl)-N-[3-(4-fluorophenyl)-1-methylazetidin-3-yl]-4-oxo-4,5-dihydropyrazolo[1,5-a]pyrazine-2-carboxamide] | 8.66
29 | O=C(NCCc1cccc(F)c1)c1cc2c(=O)[nH]c(-c3ccc4ccccc4c3)cn2n1 [Example 2-52, N-[2-(3-Fluorophenyl)ethyl]-6-(2-naphthyl)-4-oxo-4,5-dihydropyrazolo[1,5-a]pyrazine-2-carboxamide] | 8.36
30 | O=C(NC(c1ccccc1)C(F)F)c1cc2c(=O)[nH]c(-c3ccc4c(c3F)OCCO4)cn2n1 (centres unmarked) [Example 1-110, N-(2,2-Difluoro-1-phenylethyl)-6-(5-fluoro-2,3-dihydro-1,4-benzodioxin-6-yl)-4-oxo-4,5-dihydro-pyrazolo[1,5-a]pyrazine-2-carboxamide] | 9.00
31 | O=C(NCCc1ccc(F)cc1)c1cc2c(=O)[nH]c(-c3ccc4ccccc4c3)cn2n1 [Example 2-7, N-[2-(4-Fluorophenyl)ethyl]-6-(2-naphthyl)-4-oxo-4,5-dihydropyrazolo[1,5-a]pyrazine-2-carboxamide] | 8.33
32 | Cc1ccc(-c2cn3nc(C(=O)N[C@@H](c4ccccc4)C(C)(C)O)cc3c(=O)[nH]2)cc1C [Example 1-54, 6-(3,4-Dimethylphenyl)-N-[(1S)-2-hydroxy-2-methyl-1-phenylpropyl]-4-oxo-4,5-dihydropyrazolo-[1,5-a]pyrazine-2-carboxamide] | 8.44
